ChEMBL document CHEMBL4483862, “Open-source discovery of chemical leads for next-generation chemoprotective antimalarials” (2018)

System: Plasmodium berghei
Experiment: Luciferase/luciferin-expressing antifolate-resistant parasites were used to infect a culture of HepG2 cells that were pre-incubated with compounds. Infected hepatocytes emit light due to the luciferase reaction. Assay results are presented as the percent inhibition of light emission compared to control. […]
Type: functional
Details: sporozoite; for IC90: read-out: LUCIFERASE INFECTION ASSAY - IC90
[1] = read-out: LUCIFERASE INFECTION ASSAY - IC50

| Compound | IC90 | further results |
| --- | --- | --- |
| O=C(NNC(=O)c1csc(COc2ccccc2Cl)n1)c1ccc(Cl)cc1 | 7.14 µM | IC50 (FFLUC_HILL_SLOPE 94.2, FFLUC_R_SQUARED 0.775, HEPG2TOX_HILL_SLOPE 11.4, HEPG2TOX_R_SQUARED 0.575, PBLUC_HILL_SLOPE 4.49, PBLUC_R_SQUARED 0.337, read-out: LUCIFERASE INFECTION ASSAY - IC50): 4.37 µM |
| Cc1nc(Cc2nc(-c3ccc(S(C)(=O)=O)cc3)cs2)cs1 | > 10 µM | IC50 [1]: > 10 µM |
| CC(=O)CSc1nnc(-c2ccc(C(C)(C)C)cc2)n1-c1ccc(Cl)cc1 | > 8.25 µM | IC50 (PBLUC_HILL_SLOPE 12.6, PBLUC_R_SQUARED 0.0257, read-out: LUCIFERASE INFECTION ASSAY - IC50): 7.82 µM |
| O=C(Nc1nc2ccccc2n1C1CCCCC1)c1ccoc1 | 4.66 µM | IC50 (HEPG2TOX_HILL_SLOPE 1.84, HEPG2TOX_R_SQUARED 0.834, PBLUC_HILL_SLOPE 10.1, PBLUC_R_SQUARED 0.2, read-out: LUCIFERASE INFECTION ASSAY - IC50): 3.75 µM |
| O=C1C=CC(=O)N1c1ccc(Oc2ccccc2)cc1 | > 12.4 µM | IC50 (FFLUC_HILL_SLOPE 1.06, FFLUC_R_SQUARED 0.54, read-out: LUCIFERASE INFECTION ASSAY - IC50): > 12.4 µM |
| Nc1ncc(-c2ccc(CO)cc2)cc1-c1ccc(F)c(Cl)c1 | > 10 µM | IC50 (PBLUC_HILL_SLOPE 12.5, PBLUC_R_SQUARED 0.497, read-out: LUCIFERASE INFECTION ASSAY - IC50): 9.14 µM |
| O=C(Nc1ncc(Cc2cccc(Cl)c2Cl)s1)c1ccc(-n2cncn2)nc1 | > 10 µM | IC50 (FFLUC_HILL_SLOPE 10.4, FFLUC_R_SQUARED 0.281, HEPG2TOX_HILL_SLOPE 2.29, HEPG2TOX_R_SQUARED 0.935, PBLUC_HILL_SLOPE 1.7, PBLUC_R_SQUARED 0.542, read-out: LUCIFERASE INFECTION ASSAY - IC50): 3.51 µM |
| NC(c1csc(Nc2nccc(C(F)(F)F)n2)n1)C1CCCCC1 (stereo not given) | 3.66 µM | IC50 [1]: 2.8 µM |
| CN(C)c1ccc(-c2cnc3cnc(-c4ccc(N)nc4)cn23)cc1 | 8.82 µM | IC50 (HEPG2TOX_HILL_SLOPE 7.95, HEPG2TOX_R_SQUARED 0.49, PBLUC_HILL_SLOPE 26.9, PBLUC_R_SQUARED 0.584, read-out: LUCIFERASE INFECTION ASSAY - IC50): 8.12 µM |
| O=C(Nc1ccc(F)c(Cl)c1)c1cc2ccccc2s1 | > 10.8 µM | IC50 [1]: > 10.8 µM |
| O=C(Nc1ccc([N+](=O)[O-])cc1)Nc1cccnc1Cl | 2.05 µM | IC50 (PBLUC_HILL_SLOPE 2.35, PBLUC_R_SQUARED 0.752, read-out: LUCIFERASE INFECTION ASSAY - IC50): 0.807 µM |
| Cc1cc(N2CCN(CCO)CC2)n2ncc(-c3ccc(F)cc3)c2n1 | 7.96 µM | IC50 (PBLUC_HILL_SLOPE 1.69, PBLUC_R_SQUARED 0.874, read-out: LUCIFERASE INFECTION ASSAY - IC50): 2.17 µM |
| COc1ccc(-n2c(C)cc(/C=C(\C#N)C(=O)NCc3nnc4ccccn34)c2C)cc1 | 9.17 µM | IC50 (PBLUC_HILL_SLOPE 14.5, PBLUC_R_SQUARED 0.61, read-out: LUCIFERASE INFECTION ASSAY - IC50): 7.88 µM |
| c1ccc(CNc2nccc3[nH]c(-c4ccccc4)nc23)cc1 | 7.44 µM | IC50 (HEPG2TOX_HILL_SLOPE 2.3, HEPG2TOX_R_SQUARED 0.763, PBLUC_HILL_SLOPE 1.79, PBLUC_R_SQUARED 0.522, read-out: LUCIFERASE INFECTION ASSAY - IC50): 2.19 µM |
| CC(C)c1ccc(N2C(=O)/C(=C\c3ccccc3OCc3ccccn3)NC2=S)cc1 | 3.92 µM | IC50 (HEPG2TOX_HILL_SLOPE 3.89, HEPG2TOX_R_SQUARED 0.964, PBLUC_HILL_SLOPE 2.57, PBLUC_R_SQUARED 0.661, read-out: LUCIFERASE INFECTION ASSAY - IC50): 1.67 µM |
| Cc1sc2ncn(/N=C/c3ccc(N(c4ccccc4)c4ccccc4)cc3)c(=O)c2c1C | 4.02 µM | IC50 (FFLUC_HILL_SLOPE 0.996, FFLUC_R_SQUARED 0.715, HEPG2TOX_HILL_SLOPE 1.1, HEPG2TOX_R_SQUARED 0.992, PBLUC_HILL_SLOPE 2.81, PBLUC_R_SQUARED 0.433, read-out: LUCIFERASE INFECTION ASSAY - IC50): 1.84 µM |
| COc1cc2c(cc1OC)C(c1cccs1)N(C(=O)Nc1cc(C)on1)CC2 (stereo not given) | 2.7 µM | IC50 (HEPG2TOX_HILL_SLOPE 0.982, HEPG2TOX_R_SQUARED 0.92, PBLUC_HILL_SLOPE 3.46, PBLUC_R_SQUARED 0.391, read-out: LUCIFERASE INFECTION ASSAY - IC50): 1.43 µM |
| CN(C)CCCNC(=O)c1ccc(-c2cn3c(-c4ccc(Cl)cc4)cnc3cn2)cc1 | 3.76 µM | IC50 (HEPG2TOX_HILL_SLOPE 3.47, HEPG2TOX_R_SQUARED 0.818, PBLUC_HILL_SLOPE 9.43, PBLUC_R_SQUARED 0.518, read-out: LUCIFERASE INFECTION ASSAY - IC50): 2.98 µM |
| Cc1oc2c(c1C(=O)N1CCN(c3ccc(F)cc3)CC1)C(=O)c1ccccc1C2=O | > 10 µM | IC50 (PBLUC_HILL_SLOPE 2.38, PBLUC_R_SQUARED 0.395, read-out: LUCIFERASE INFECTION ASSAY - IC50): 4.13 µM |
| O=C1Nc2ccc(F)cc2/C1=N/NC(=S)NC1CC2C=CC1C2 (stereo not given) | 1.38 µM | IC50 (HEPG2TOX_HILL_SLOPE 0.956, HEPG2TOX_R_SQUARED 0.854, PBLUC_HILL_SLOPE 4.64, PBLUC_R_SQUARED 0.779, read-out: LUCIFERASE INFECTION ASSAY - IC50): 0.86 µM |

| Compound | IC90 | further results |
| --- | --- | --- |
| C#CC(CC)(CC)NC(=O)CSc1nc(C)nc2sc3c(c12)CCC3 | > 10 µM | IC50 [1]: > 10 µM |
| CCc1c(C)sc2nc(SCC3COc4ccccc4O3)n(-c3ccc(O)cc3C)c(=O)c12 (stereo not given) | > 10 µM | IC50 (FFLUC_HILL_SLOPE 1.97, FFLUC_R_SQUARED 0.841, read-out: LUCIFERASE INFECTION ASSAY - IC50): > 10 µM |
| O=S(=O)(c1ccc2ccccc2c1)N1CCCC1c1nnc2ccccn12 (stereo not given) | 5.59 µM | IC50 (PBLUC_HILL_SLOPE 2.1, PBLUC_R_SQUARED 0.614, read-out: LUCIFERASE INFECTION ASSAY - IC50): 1.96 µM |
| Cc1ccc(N2C(=O)/C(=C/c3ccc(C(C)C)cc3)N=C2SCc2cccc(S(=O)(=O)N(C)C)c2)cc1 | > 10 µM | IC50 (FFLUC_HILL_SLOPE 2.29, FFLUC_R_SQUARED 0.777, PBLUC_HILL_SLOPE 2.35, PBLUC_R_SQUARED 0.372, read-out: LUCIFERASE INFECTION ASSAY - IC50): 6.97 µM |
| CCCCNC(=O)c1c(NC(=O)c2cccc(C)c2)nc2ccc(C)cn12 | 3.17 µM | IC50 (FFLUC_HILL_SLOPE 134, FFLUC_R_SQUARED 0.564, HEPG2TOX_HILL_SLOPE 2.72, HEPG2TOX_R_SQUARED 0.791, PBLUC_HILL_SLOPE 3.36, PBLUC_R_SQUARED 0.556, read-out: LUCIFERASE INFECTION ASSAY - IC50): 1.65 µM |
| O=C(Nc1ccc(Oc2cc(C(F)(F)F)cc(C(F)(F)F)c2)cc1)Nc1ccc(OC(F)(F)F)cc1 | 0.304 µM | IC50 (FFLUC_HILL_SLOPE 4.18, FFLUC_R_SQUARED 0.0377, HEPG2TOX_HILL_SLOPE 3.88, HEPG2TOX_R_SQUARED 0.972, PBLUC_HILL_SLOPE 90.6, PBLUC_R_SQUARED 0.773, read-out: LUCIFERASE INFECTION ASSAY - IC50): 0.297 µM |
| Cc1cc(C(=O)CSc2nc(N)nc(N)n2)c(C)n1CCC1=CCCCC1 | > 10 µM | IC50 [1]: > 10 µM |
| Cc1nc(CSCC(=O)Nc2nc(-c3ccccn3)cs2)cs1 | > 10 µM | IC50 (PBLUC_HILL_SLOPE 39.1, PBLUC_R_SQUARED 0.364, read-out: LUCIFERASE INFECTION ASSAY - IC50): 9.84 µM |
| CCCn1c(N)c(C(=O)CSc2nnc(-c3ccccc3)c(-c3ccccc3)n2)c(=O)n(C)c1=O | > 10 µM | IC50 [1]: > 10 µM |
| O=[N+]([O-])c1cc(C(F)(F)F)ccc1N/N=C1\CCCCC1CCS(=O)(=O)c1ccc(Cl)cc1 (stereo not given) | > 6.55 µM | IC50 [1]: > 6.55 µM |
| COc1ccc(Nc2ncnc3scc(-c4ccc(OC)cc4)c23)cc1 | 4.29 µM | IC50 [1]: 2.65 µM |
| N#CC(Nc1cc(C(F)(F)F)cc(C(F)(F)F)c1)c1ccccc1 (stereo not given) | > 9.59 µM | IC50 [1]: 7.17 µM |
| Cc1sc2nc(-c3cccs3)nc(N3CCN(C(=O)c4ccccc4)CC3)c2c1C | > 10 µM | IC50 (PBLUC_HILL_SLOPE 1.78, PBLUC_R_SQUARED 0.529, read-out: LUCIFERASE INFECTION ASSAY - IC50): 4.85 µM |
| C=CCn1c(Sc2nc(C)nc3sc4c(c23)CCC4)nnc1-c1ccco1 | > 10 µM | IC50 (FFLUC_HILL_SLOPE 38.3, FFLUC_R_SQUARED 0.259, read-out: LUCIFERASE INFECTION ASSAY - IC50): > 10 µM |
| CCN(c1ccccc1)S(=O)(=O)c1cc(-c2oc3ccc(F)cc3c(=O)c2C)ccc1C | > 10 µM | IC50 (PBLUC_HILL_SLOPE 4.38, PBLUC_R_SQUARED 0.421, read-out: LUCIFERASE INFECTION ASSAY - IC50): 6.53 µM |
| COc1ccccc1CNC(=O)NC(C)c1ccc(Cl)cc1Cl (stereo not given) | > 10 µM | IC50 [1]: > 10 µM |
| S=C1CCc2ccccc2N1Cc1ccccc1 | > 13 µM | IC50 (PBLUC_HILL_SLOPE 2.45, PBLUC_R_SQUARED 0.245, read-out: LUCIFERASE INFECTION ASSAY - IC50): > 13 µM |
| C/C(=N\n1c(-c2ccc(OC(F)F)cc2)cs/c1=N\CCc1ccccc1)c1ccc2c(c1)OCO2 | > 10 µM | IC50 (PBLUC_HILL_SLOPE 2.39, PBLUC_R_SQUARED 0.524, read-out: LUCIFERASE INFECTION ASSAY - IC50): 9.18 µM |
| COc1ccc(OC)c(/C=c2\s/c(=C(/C#N)c3nnc4n3CCCCC4)n(-c3ccccc3)c2=O)c1 | > 10 µM | IC50 (PBLUC_HILL_SLOPE 2.48, PBLUC_R_SQUARED 0.654, read-out: LUCIFERASE INFECTION ASSAY - IC50): 4.74 µM |
| CCCNC(=O)c1c(NC(=O)c2cccc(C(F)(F)F)c2)nc2ccccn12 | 0.786 µM | IC50 [1]: 0.399 µM |
